Values joined by “and” are separate entries in the source; they are usually repeats but may differ in a detail not shown here. Equal entries are not always repeated.
Assays:
[1] = Cytotoxicity against human MRC5 cells assessed as reduction in cell viability incubated for 3 days by resazurin dye based fluorescence analysis; type: toxicity; conditions: time 3 day
[2] = Toxicity in golden hamster infected with Leishmania infantum MHOM/MA(BE)/67 amastigotes assessed as gross pathological changes at 50 mg/kg, po SID and measured after 10 days; type: organism-based, Mesocricetus auratus; conditions: in vivo, 240 h, time 10 day
Leishmania infantum [3] = experiment: Antileishmanial activity against sodium stibogluconate and potassium antimonyl tartrate resistant intracellular Leishmania infantum MHOM/FR/96/LEM3323-CI4 promastigotes infected in Swiss mouse peritoneal macrophages assessed as inhibition of parasite growth measured after 96 hrs by microscopic analysis; type: functional, organism-based; conditions: MHOM/FR/96/LEM3323-CI4, Peritoneal macrophage
[4] = Half life in golden hamster infected with Leishmania infantum MHOM/MA(BE)/67 amastigotes at 50 mg/kg, po SID and measured after 10 days by LC-MS/MS analysis; type: ADME, organism-based, Mesocricetus auratus; conditions: in vivo, time 10 day
[5] = Selectivity index, ratio of CC50 for cytotoxicity against human MRC5 cells to EC50 for Trypanosoma cruzi Tulahuen CL2 amastigotes expressing beta galactosidase infected in human MRC5 cells; type: toxicity, cell-based; conditions: read-out: Ratio CC50/EC50
[6] = Metabolic stability in mouse liver microsomes S9 fraction assessed as CYP450-mediated metabolism by measuring parent compound remaining measured after 60 mins in presence of NADPH; type: ADME, subcellular; conditions: read-out: Stability
[7] = Metabolic stability in golden hamster liver microsomes S9 fraction assessed as CYP450-mediated metabolism by measuring parent compound remaining measured after 30 mins in presence of NADPH; type: ADME, subcellular, Mesocricetus auratus; conditions: read-out: Stability
Leishmania infantum [8] = experiment: Antileishmanial activity against intracellular Leishmania infantum MHOM/MA(BE)/67 amastigotes infected in golden hamster assessed as reduction of amastigote burdens in bone marrow at 50 mg/kg, po SID for 10 days by geimsa staining based microscopic analysis; type: functional; design: scale not given: the % may be the effect or the level left; conditions: time 10 day
Leishmania infantum [9] = experiment: Antileishmanial activity against sodium stibogluconate, potassium antimonyl tartrate and MIL resistant intracellular Leishmania infantum MHOM/FR/96/LEM3323-CI4 MIL5C13 promastigotes infected in Swiss mouse peritoneal macrophages assessed as inhibition of parasite growth measured after 96 hrs by microscopic analysis; type: functional, organism-based; conditions: MHOM/FR/96/LEM3323-CI4 MIL5C13, Peritoneal macrophage
Leishmania infantum [10] = experiment: Antileishmanial activity against intracellular Leishmania infantum MHOM/MA(BE)/67 ITMAP263 amastigotes infected in Swiss mouse peritoneal macrophage assessed as inhibition of parasite growth measured after 5 days by geimsa staining based microscopic analysis; type: functional, organism-based; conditions: MHOM/MA(BE)/67 ITMAP263, Peritoneal macrophage, 120 h
Cytochrome P450 [11] = target: T1, Cytochrome P450 (Homo sapiens, UniProt P04798+P05177+P05181+P08684+P10632+P10635+P11509+P11712+P13584+P20813+P20815+P20853+P24462+P24903+P33260+P33261+P51589+P78329+P98187+Q02928+Q08477+Q16678+Q16696+Q5TCH4+Q6VVX0+Q7Z449+Q8TAV3+Q96SQ9+Q9HB55); experiment: Metabolic stability in human liver microsomes S9 fraction assessed as CYP450-mediated metabolism by measuring parent compound remaining measured after 60 mins in presence of NADPH; type: ADME, subcellular; conditions: read-out: Stability
Cytochrome P450 [12] = target: T1, Cytochrome P450; experiment: Metabolic stability in human liver microsomes S9 fraction assessed as CYP450-mediated metabolism by measuring parent compound remaining measured after 15 mins in presence of NADPH; type: ADME, subcellular; conditions: read-out: Stability
[13] = AUC (0 to 8) in golden hamster infected with Leishmania infantum MHOM/MA(BE)/67 amastigotes at 50 mg/kg, po SID and measured after 10 days by LC-MS/MS analysis; type: ADME, organism-based, Mesocricetus auratus; design: dose 50 mg/kg, time 10 day, route po; conditions: in vivo
[14] = Metabolic stability in golden hamster liver microsomes S9 fraction assessed as CYP450-mediated metabolism by measuring parent compound remaining measured after 15 mins in presence of NADPH; type: ADME, subcellular, Mesocricetus auratus; conditions: read-out: Stability
[15] = Tmax in golden hamster infected with Leishmania infantum MHOM/MA(BE)/67 amastigotes at 50 mg/kg, po SID and measured after 10 days by LC-MS/MS analysis; type: ADME, organism-based, Mesocricetus auratus; conditions: in vivo, time 10 day
[16] = Metabolic stability in mouse liver microsomes S9 fraction assessed as UGT-mediated metabolism by measuring parent compound remaining measured after 15 mins in presence of NADPH; type: ADME, subcellular; conditions: read-out: Stability
[17] = target: UDP-glucuronosyltransferases (UGTs) (Homo sapiens, UniProt O60656+O75310+O75795+P06133+P0DTE4+P0DTE5+P16662+P19224+P22309+P22310+P35503+P35504+P36537+P54855+Q6UWM9+Q9BY64+Q9HAW7+Q9HAW8+Q9HAW9); experiment: Metabolic stability in human liver microsomes S9 fraction assessed as UGT-mediated metabolism by measuring parent compound remaining measured after 15 mins in presence of NADPH; type: ADME, subcellular; conditions: read-out: Stability
[18] = Cytotoxicity against Swiss mouse peritoneal macrophages assessed as reduction in cell viability measured after 5 days by microscopic analysis; type: toxicity, cell-based, Peritoneal macrophage; conditions: time 5 day
Trypanosoma cruzi = experiment: Antitrypanosomal activity against nifurtimox-sensitive Tulahuen CL2 amastigotes expressing beta galactosidase infected in human MRC5 cells assessed as inhibition of parasite growth using chlorophenol red beta-D-galactopyranoside as substrate and measured after 7 days by spectrophotometric analysis; type: functional, organism-based; conditions: Tulahuen CL2, MRC5, 168 h, read-out: EC50
Cytochrome P450 [19] = target: T1, Cytochrome P450; experiment: Metabolic stability in human liver microsomes S9 fraction assessed as CYP450-mediated metabolism by measuring parent compound remaining measured after 30 mins in presence of NADPH; type: ADME, subcellular; conditions: read-out: Stability
[20] = Tmax in golden hamster infected with Leishmania infantum MHOM/MA(BE)/67 amastigotes at 50 mg/kg, po SID and measured after 24 hrs by LC-MS/MS analysis; type: ADME, organism-based, Mesocricetus auratus; conditions: in vivo
[21] = AUC (0 to 24) in golden hamster infected with Leishmania infantum MHOM/MA(BE)/67 amastigotes at 50 mg/kg, po SID and measured after 24 hrs by LC-MS/MS analysis; type: ADME, organism-based, Mesocricetus auratus; design: time 24 hrs, dose 50 mg/kg, route po; conditions: in vivo
[22] = AUC (0 to 8) in golden hamster infected with Leishmania infantum MHOM/MA(BE)/67 amastigotes at 50 mg/kg, po SID and measured after 24 hrs by LC-MS/MS analysis; type: ADME, organism-based, Mesocricetus auratus; design: dose 50 mg/kg, time 24 hrs, route po; conditions: in vivo
[23] = Cmax in golden hamster infected with Leishmania infantum MHOM/MA(BE)/67 amastigotes at 50 mg/kg, po SID and measured after 10 days by LC-MS/MS analysis; type: ADME, organism-based, Mesocricetus auratus; design: dose 50 mg/kg, time 10 day, route po; conditions: in vivo
[24] = Half life in golden hamster infected with Leishmania infantum MHOM/MA(BE)/67 amastigotes at 50 mg/kg, po SID and measured after 24 hrs by LC-MS/MS analysis; type: ADME, organism-based, Mesocricetus auratus; conditions: in vivo
Leishmania infantum [25] = experiment: Antileishmanial activity against intracellular Leishmania infantum MHOM/MA(BE)/67 amastigotes infected in golden hamster assessed as reduction of amastigote burdens in liver at 50 mg/kg, po SID for 10 days by geimsa staining based microscopic analysis; type: functional; design: scale not given: the % may be the effect or the level left; conditions: time 10 day
[26] = Metabolic stability in golden hamster liver microsomes S9 fraction assessed as UGT-mediated metabolism by measuring parent compound remaining measured after 60 mins in presence of NADPH; type: ADME, subcellular, Mesocricetus auratus; conditions: read-out: Stability
[27] = Metabolic stability in mouse liver microsomes S9 fraction assessed as CYP450-mediated metabolism by measuring parent compound remaining measured after 15 mins in presence of NADPH; type: ADME, subcellular; conditions: read-out: Stability
[28] = Metabolic stability in golden hamster liver microsomes S9 fraction assessed as UGT-mediated metabolism by measuring parent compound remaining measured after 15 mins in presence of NADPH; type: ADME, subcellular, Mesocricetus auratus; conditions: read-out: Stability

For Cc1ncnc2c1c(-c1cc(Cl)ccn1)cn2[C@@H]1O[C@H](CO)[C@@H](O)[C@H]1O, the CC50 at 72 h [1] was over 64000 nM, the Activity [2] was “Non-Toxic” and the EC50 (Leishmania infantum [3]) was 2210 nM. It also gave a half-life [4] of 1.7 h, a selectivity ratio [5] of over 77 and a remaining at 1 h [6] of 94%. The remaining at 0.5 h [7] was 95%, the Activity (Leishmania infantum [8]) was 30.8% and the EC50 (Leishmania infantum [9]) was 730 nM. It also gave an EC50 (Leishmania infantum [10]) of 680 nM, a remaining at 1 h (Cytochrome P450 [11]) of 75% and a remaining at 0.25 h (Cytochrome P450 [12]) of 92%. For the same compound, the AUC at 240 h [13] was 2840 ng·h/mL, the remaining at 0.25 h [14] was 96% and the Tmax [15] was 0.5 h. It also gave a remaining at 0.25 h [16] of 103%, a remaining at 0.25 h [17] of 93% and a CC50 at 120 h [18] of over 64000 nM. For the same compound, the EC50 (Trypanosoma cruzi) was 830 nM, the remaining at 0.5 h (Cytochrome P450 [19]) was 86% and the Tmax [20] was 0.5 h. The AUC at 24 h [21] was 2080 ng·h/mL, the AUC at 24 h [22] was 1660 ng·h/mL and the Cmax [23] was 1210 ng/mL and 3.2 µM. The half-life [24] was 2.7 h, the Activity (Leishmania infantum [25]) was 52.7% and the remaining at 1 h [26] was 89%. The remaining at 0.25 h [27] was 109% and the remaining at 0.25 h [28] was 98%.

Reference: ChEMBL document CHEMBL5120865, “Exploration of 6-methyl-7-(Hetero)Aryl-7-Deazapurine ribonucleosides as antileishmanial agents” (Eur J Med Chem, 2022)
